Measurements reported in the kinase profiling compilation of Christmann-Franck et al. (2016).

Legend:
Assay in all cases: radiometric filter-binding kinase assay, Kinase HotSpot
Settings in all cases: compound 0.5 µM; ATP 10 µM
BMX (human) = BMX (human) (UniProt P51813)
CAMK2A (human) = CAMK2A (human) (UniProt Q9UQM7)
CAMK2G (human) = CAMK2G (human) (UniProt Q13555)
CDK2 CCNE1 (human) = CDK2 CCNE1 (human) (UniProt P24941+P24864)
CDK6 CCND3 (human) = CDK6 CCND3 (human) (UniProt P30281+Q00534)
CSF1R (human) = CSF1R (human) (UniProt P07333)
Chain of CSF1R (human) (P07333 whole entry, looked up): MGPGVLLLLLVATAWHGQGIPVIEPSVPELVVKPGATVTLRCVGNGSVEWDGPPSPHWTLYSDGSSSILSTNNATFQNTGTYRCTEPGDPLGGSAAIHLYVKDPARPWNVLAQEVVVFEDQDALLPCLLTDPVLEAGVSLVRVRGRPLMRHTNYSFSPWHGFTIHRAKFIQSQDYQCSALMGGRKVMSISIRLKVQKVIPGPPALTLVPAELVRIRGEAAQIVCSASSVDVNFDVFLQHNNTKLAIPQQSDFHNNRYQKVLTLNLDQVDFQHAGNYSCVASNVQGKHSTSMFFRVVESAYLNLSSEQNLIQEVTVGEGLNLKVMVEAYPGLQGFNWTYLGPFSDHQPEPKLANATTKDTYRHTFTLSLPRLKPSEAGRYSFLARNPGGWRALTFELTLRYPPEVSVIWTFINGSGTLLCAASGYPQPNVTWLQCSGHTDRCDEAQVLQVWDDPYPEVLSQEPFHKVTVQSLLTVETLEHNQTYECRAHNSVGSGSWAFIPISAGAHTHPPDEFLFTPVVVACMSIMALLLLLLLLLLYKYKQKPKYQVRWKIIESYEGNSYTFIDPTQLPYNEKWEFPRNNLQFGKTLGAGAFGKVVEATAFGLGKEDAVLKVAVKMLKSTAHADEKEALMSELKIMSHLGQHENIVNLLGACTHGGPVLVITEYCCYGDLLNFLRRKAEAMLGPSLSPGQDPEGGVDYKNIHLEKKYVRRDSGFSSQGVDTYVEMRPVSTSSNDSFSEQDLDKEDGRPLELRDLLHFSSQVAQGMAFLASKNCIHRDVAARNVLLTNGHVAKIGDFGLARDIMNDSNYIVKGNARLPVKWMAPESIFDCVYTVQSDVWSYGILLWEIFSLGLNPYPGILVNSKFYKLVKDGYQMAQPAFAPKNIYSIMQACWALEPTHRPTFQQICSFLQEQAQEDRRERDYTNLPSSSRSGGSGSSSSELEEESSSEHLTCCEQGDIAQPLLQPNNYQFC

DYRK3 (human) = DYRK3 (human) (UniProt O43781)
EPHA3 (human) = EPHA3 (human) (UniProt P29320)
FER (human) = FER (human) (UniProt P16591)
GSG2 (human) = GSG2 (human) (UniProt Q8TF76)
IGF1R (human) = IGF1R (human) (UniProt P08069)
IRAK4 (human) = IRAK4 (human) (UniProt Q9NWZ3)
ITK (human) = ITK (human) (UniProt Q08881)
MAP2K1 (human) = MAP2K1 (human) (UniProt Q02750)
MAP2K2 (human) = MAP2K2 (human) (UniProt P36507)
MAP4K2 (human) = MAP4K2 (human) (UniProt Q12851)
MAP4K4 (human) = MAP4K4 (human) (UniProt O95819)
Chain of MAP4K4 (human) (O95819 whole entry, looked up): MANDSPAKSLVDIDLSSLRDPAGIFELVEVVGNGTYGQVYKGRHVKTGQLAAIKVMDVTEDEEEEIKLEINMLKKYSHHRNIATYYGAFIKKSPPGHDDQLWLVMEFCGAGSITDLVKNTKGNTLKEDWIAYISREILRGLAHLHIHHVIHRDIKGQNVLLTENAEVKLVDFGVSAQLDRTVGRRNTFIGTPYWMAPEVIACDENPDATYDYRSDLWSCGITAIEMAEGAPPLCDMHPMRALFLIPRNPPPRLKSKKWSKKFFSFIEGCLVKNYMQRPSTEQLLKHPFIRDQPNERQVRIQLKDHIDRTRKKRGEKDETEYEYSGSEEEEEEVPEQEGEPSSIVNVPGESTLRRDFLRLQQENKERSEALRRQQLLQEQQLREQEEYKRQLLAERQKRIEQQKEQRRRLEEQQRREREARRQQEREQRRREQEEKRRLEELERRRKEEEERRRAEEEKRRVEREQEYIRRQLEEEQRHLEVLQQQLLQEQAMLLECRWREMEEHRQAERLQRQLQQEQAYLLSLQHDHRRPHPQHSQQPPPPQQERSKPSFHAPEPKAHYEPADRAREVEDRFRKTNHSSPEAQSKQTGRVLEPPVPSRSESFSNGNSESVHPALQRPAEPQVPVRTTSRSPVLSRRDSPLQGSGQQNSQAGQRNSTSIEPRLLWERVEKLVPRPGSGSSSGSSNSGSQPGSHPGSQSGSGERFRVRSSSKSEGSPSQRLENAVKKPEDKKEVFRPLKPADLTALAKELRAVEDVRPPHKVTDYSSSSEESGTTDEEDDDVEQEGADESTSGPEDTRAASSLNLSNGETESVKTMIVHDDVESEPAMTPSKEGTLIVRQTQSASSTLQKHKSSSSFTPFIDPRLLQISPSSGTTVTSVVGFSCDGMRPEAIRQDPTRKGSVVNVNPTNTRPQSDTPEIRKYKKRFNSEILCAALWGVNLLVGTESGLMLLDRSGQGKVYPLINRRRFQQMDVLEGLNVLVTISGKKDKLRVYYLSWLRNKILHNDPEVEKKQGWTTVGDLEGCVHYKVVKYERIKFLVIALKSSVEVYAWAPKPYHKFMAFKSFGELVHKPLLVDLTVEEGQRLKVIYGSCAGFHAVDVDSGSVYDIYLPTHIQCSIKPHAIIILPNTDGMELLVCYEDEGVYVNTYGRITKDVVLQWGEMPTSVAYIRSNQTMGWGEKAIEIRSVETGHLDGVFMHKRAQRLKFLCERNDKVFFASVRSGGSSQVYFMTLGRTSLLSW

MAPK1 (human) = MAPK1 (human) (UniProt P28482)
MAPKAPK2 (human) = MAPKAPK2 (human) (UniProt P49137)
MATK (human) = MATK (human) (UniProt P42679)
MINK1 (human) = MINK1 (human) (UniProt Q8N4C8)
MST1R (human) = MST1R (human) (UniProt Q04912)
MUSK (human) = MUSK (human) (UniProt O15146)
NEK11 (human) = NEK11 (human) (UniProt Q8NG66)
PAK1 (human) = PAK1 (human) (UniProt Q13153)
PBK (human) = PBK (human) (UniProt Q96KB5)
Chain of PBK (human) (Q96KB5 whole entry, looked up): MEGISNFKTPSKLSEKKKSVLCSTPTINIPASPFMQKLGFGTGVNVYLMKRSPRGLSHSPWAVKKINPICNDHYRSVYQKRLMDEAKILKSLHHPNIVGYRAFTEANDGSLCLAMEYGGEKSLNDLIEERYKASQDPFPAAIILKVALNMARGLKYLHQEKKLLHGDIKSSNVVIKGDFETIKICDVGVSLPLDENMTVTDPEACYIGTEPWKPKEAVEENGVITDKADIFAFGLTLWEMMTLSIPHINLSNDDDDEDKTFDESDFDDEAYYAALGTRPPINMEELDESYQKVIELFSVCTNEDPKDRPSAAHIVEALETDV

PIM3 (human) = PIM3 (human) (UniProt Q86V86)
PKN1 (human) = PKN1 (human) (UniProt Q16512)
PRKCB2 (human) = PRKCB2 (human) (UniProt P05771)
PRKD1 (human) = PRKD1 (human) (UniProt Q15139)
PTK2 (human) = PTK2 (human) (UniProt Q05397)
ROCK1 (human) = ROCK1 (human) (UniProt Q13464)
ROCK2 (human) = ROCK2 (human) (UniProt O75116)
Chain of ROCK2 (human) (O75116 whole entry, looked up): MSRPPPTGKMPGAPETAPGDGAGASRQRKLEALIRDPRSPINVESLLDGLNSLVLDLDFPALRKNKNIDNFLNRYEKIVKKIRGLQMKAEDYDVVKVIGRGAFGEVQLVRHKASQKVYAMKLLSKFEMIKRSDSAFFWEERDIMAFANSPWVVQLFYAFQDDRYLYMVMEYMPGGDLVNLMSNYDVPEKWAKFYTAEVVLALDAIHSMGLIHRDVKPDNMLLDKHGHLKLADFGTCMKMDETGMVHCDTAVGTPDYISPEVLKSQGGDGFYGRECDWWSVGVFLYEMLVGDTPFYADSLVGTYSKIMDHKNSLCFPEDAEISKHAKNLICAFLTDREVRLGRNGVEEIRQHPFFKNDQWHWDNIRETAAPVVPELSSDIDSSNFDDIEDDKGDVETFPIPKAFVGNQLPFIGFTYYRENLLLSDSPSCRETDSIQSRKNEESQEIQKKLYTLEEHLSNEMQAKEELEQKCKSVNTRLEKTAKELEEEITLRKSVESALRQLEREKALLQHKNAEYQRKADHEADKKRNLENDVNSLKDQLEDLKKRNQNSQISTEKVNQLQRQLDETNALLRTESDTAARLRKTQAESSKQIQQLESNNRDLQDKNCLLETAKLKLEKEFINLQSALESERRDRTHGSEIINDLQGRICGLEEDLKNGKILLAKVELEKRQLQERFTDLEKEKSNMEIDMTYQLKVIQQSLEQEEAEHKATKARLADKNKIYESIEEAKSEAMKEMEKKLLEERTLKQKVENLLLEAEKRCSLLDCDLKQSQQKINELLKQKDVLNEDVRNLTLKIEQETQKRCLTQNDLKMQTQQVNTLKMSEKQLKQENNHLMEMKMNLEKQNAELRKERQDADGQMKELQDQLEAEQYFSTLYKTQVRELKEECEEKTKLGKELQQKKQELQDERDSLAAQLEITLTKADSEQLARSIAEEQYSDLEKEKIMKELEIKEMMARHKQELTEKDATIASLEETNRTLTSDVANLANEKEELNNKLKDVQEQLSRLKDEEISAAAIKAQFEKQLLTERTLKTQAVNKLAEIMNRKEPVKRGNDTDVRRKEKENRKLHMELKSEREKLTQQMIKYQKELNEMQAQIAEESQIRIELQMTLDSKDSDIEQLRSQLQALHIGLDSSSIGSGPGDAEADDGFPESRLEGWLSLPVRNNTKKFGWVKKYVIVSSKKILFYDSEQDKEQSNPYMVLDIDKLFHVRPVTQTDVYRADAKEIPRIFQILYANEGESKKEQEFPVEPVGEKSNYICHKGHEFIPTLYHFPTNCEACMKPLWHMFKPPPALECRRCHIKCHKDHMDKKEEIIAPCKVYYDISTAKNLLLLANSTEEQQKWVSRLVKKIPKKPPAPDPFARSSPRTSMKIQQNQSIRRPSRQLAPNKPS

RPS6KA3 KD1 KD2 (human) = RPS6KA3 KD1 KD2 (human) (UniProt P51812)
Chain of RPS6KA3 KD1 KD2 (human) (P51812 whole entry, looked up): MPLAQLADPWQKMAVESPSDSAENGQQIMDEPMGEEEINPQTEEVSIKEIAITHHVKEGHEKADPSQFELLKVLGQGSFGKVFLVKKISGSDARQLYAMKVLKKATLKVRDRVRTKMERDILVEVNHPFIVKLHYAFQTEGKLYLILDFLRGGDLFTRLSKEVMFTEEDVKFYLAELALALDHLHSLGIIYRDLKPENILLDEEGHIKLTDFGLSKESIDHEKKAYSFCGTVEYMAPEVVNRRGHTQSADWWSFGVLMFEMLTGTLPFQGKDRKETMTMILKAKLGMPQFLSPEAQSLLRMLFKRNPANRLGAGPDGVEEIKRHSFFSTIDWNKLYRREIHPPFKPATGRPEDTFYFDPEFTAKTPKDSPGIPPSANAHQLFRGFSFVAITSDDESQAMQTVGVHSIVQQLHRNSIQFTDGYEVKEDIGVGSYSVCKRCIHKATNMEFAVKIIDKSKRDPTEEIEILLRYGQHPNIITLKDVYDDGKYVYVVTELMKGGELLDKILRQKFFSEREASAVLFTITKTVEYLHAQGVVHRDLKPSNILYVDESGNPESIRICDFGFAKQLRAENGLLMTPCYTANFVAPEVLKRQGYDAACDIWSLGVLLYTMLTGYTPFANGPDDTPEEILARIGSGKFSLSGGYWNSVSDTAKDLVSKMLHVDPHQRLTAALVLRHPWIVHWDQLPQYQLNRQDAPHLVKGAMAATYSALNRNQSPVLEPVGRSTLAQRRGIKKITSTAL

RPS6KA4 KD2 (human) = RPS6KA4 KD2 (human) (UniProt O75676)
SLK (human) = SLK (human) (UniProt Q9H2G2)
SRC (human) = SRC (human) (UniProt P12931)
STK39 (human) = STK39 (human) (UniProt Q9UEW8)
TNK2 (human) = TNK2 (human) (UniProt Q07912)
[1] = target: TYK2 JH1 catalytic (human) (UniProt P29597)
WNK2 (human) = WNK2 (human) (UniProt Q9Y3S1)
YES1 (human) = YES1 (human) (UniProt P07947)

Chain of CDK2 CCNE1 (human) (P24864 whole entry, looked up, other chains not shown): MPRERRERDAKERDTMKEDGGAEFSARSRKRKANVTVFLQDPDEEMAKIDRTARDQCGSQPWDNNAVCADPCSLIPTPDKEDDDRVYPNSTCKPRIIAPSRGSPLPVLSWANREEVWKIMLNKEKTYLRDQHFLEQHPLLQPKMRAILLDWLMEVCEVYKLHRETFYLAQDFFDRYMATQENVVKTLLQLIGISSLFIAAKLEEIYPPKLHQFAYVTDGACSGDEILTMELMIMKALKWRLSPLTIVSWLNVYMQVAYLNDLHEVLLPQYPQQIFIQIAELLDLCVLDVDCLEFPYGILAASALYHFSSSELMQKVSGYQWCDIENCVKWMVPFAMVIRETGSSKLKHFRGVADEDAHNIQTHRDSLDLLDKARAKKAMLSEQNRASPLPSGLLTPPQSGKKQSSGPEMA

`COc1ccc(-c2cnc3c(-c4ccsc4)cnn3c2)cc1` gave a residual activity (BMX (human)) of 90.6%, a residual activity (CAMK2A (human)) of 96.6% and a residual activity (CAMK2G (human)) of 93.7%. For the same compound, the residual activity (CDK2 CCNE1 (human)) was 82.8%, the residual activity (CDK6 CCND3 (human)) was 33.4% and the residual activity (CSF1R (human)) was 53.6%. For the same compound, the residual activity (DYRK3 (human)) was 89.9%, the residual activity (EPHA3 (human)) was 93.4% and the residual activity (FER (human)) was 81.5%. For the same compound, the residual activity (GSG2 (human)) was 77.2%, the residual activity (IGF1R (human)) was 91.3% and the residual activity (IRAK4 (human)) was 82.1%. The residual activity (ITK (human)) was 95.2%, the residual activity (MAP2K1 (human)) was 98.2% and the residual activity (MAP2K2 (human)) was 95.5%. It also gave a residual activity (MAP4K2 (human)) of 74.8%, a residual activity (MAP4K4 (human)) of 28.4% and a residual activity (MAPK1 (human)) of 99.2%. It also gave a residual activity (MAPKAPK2 (human)) of 95.8%, a residual activity (MATK (human)) of 99.4% and a residual activity (MINK1 (human)) of 63.7%. The residual activity (MST1R (human)) was 91.6%, the residual activity (MUSK (human)) was 74.9% and the residual activity (NEK11 (human)) was 93.3%. For the same compound, the residual activity (PAK1 (human)) was 97%, the residual activity (PBK (human)) was 91.6% and the residual activity (PIM3 (human)) was 100%. The residual activity (PKN1 (human)) was 93.1%, the residual activity (PRKCB2 (human)) was 94.3% and the residual activity (PRKD1 (human)) was 95.1%. It also gave a residual activity (PTK2 (human)) of 93%, a residual activity (ROCK1 (human)) of 95.7% and a residual activity (ROCK2 (human)) of 90.4%. For the same compound, the residual activity (RPS6KA3 KD1 KD2 (human)) was 83.6%, the residual activity (RPS6KA4 KD2 (human)) was 98.7% and the residual activity (SLK (human)) was 86.3%. For the same compound, the residual activity (SRC (human)) was 91.7%, the residual activity (STK39 (human)) was 95.1% and the residual activity (TNK2 (human)) was 92.2%. For the same compound, the residual activity [1] was 86.1%, the residual activity (WNK2 (human)) was 103% and the residual activity (YES1 (human)) was 67.7%.

With `O=C1Cc2c([nH]c3ccc([N+](=O)[O-])cc23)-c2ccccc2N1` the residual activity (BMX (human)) was 110%, the residual activity (CAMK2A (human)) was 88.4% and the residual activity (CAMK2G (human)) was 94.5%. The residual activity (CDK2 CCNE1 (human)) was 19.6%, the residual activity (CSF1R (human)) was 51% and the residual activity (DYRK3 (human)) was 99.3%. It also gave a residual activity (EPHA3 (human)) of 97.8%, a residual activity (FER (human)) of 75.1% and a residual activity (GSG2 (human)) of 106%. It also gave a residual activity (IGF1R (human)) of 93%, a residual activity (IRAK4 (human)) of 167% and a residual activity (ITK (human)) of 97.1%. The residual activity (MAP2K1 (human)) was 92.6%, the residual activity (MAP2K2 (human)) was 92.5% and the residual activity (MAP4K2 (human)) was 8.77%. The residual activity (MAP4K4 (human)) was 4.47%, the residual activity (MAPK1 (human)) was 106% and the residual activity (MAPKAPK2 (human)) was 77.4%. The residual activity (MATK (human)) was 98.9%, the residual activity (MINK1 (human)) was 20.4% and the residual activity (MST1R (human)) was 103%. The residual activity (MUSK (human)) was 68.5%, the residual activity (NEK11 (human)) was 95.4% and the residual activity (PAK1 (human)) was 36.7%. The residual activity (PBK (human)) was 85.1%, the residual activity (PIM3 (human)) was 62.3% and the residual activity (PKN1 (human)) was 88.2%. The residual activity (PRKCB2 (human)) was 105%, the residual activity (PRKD1 (human)) was 95.6% and the residual activity (PTK2 (human)) was 88.1%. It also gave a residual activity (ROCK1 (human)) of 91.2%, a residual activity (ROCK2 (human)) of 82% and a residual activity (RPS6KA3 KD1 KD2 (human)) of 70.6%. It also gave a residual activity (RPS6KA4 KD2 (human)) of 90.6%, a residual activity (SLK (human)) of 96.2% and a residual activity (SRC (human)) of 39.7%. It also gave a residual activity (STK39 (human)) of 77.5%, a residual activity (TNK2 (human)) of 74.9% and a residual activity [1] of 56.5%. The residual activity (WNK2 (human)) was 116% and the residual activity (YES1 (human)) was 42.3%.
